Earlier results on 6 compounds are cited in patent publication US20100092557A1 (priority 2006, published 2010).

What is called half-life is the time needed for the level to fall by half in the phase considered.

For this data set the following is noted: general statement in the background; species and matrix not given.
Turning to `O=C(O)Cc1ccccc1Nc1c(Cl)cccc1Cl` [diclofenac], the half-life was 1.1 h.
As to `O=C(O)c1ccccc1Nc1cccc(C(F)(F)F)c1` [flufenamic acid], the half-life is 1.4 h.
Take `COc1ccc2c(c1)c(CC(=O)O)c(C)n2C(=O)c1ccc(Cl)cc1` [indomethacin]: the half-life was 4.6 h.
Take `CCCCC1C(=O)N(c2ccccc2)N(c2ccccc2)C1=O` [phenylbutazone]: the half-life is 68 h.
As to `CN1C(C(=O)Nc2ccccn2)=C(O)c2ccccc2S1(=O)=O` [piroxicam], the half-life was 57 h.
Take `CC(C(=O)O)c1ccc(C(=O)c2ccccc2)s1` (stereo not drawn) [tiaprofenic acid]: the half-life was 3.0 h.
